Literature values in patent publication US8584539B2, “Delivery device for dispensing pharmaceutical dosage forms into dissolution testing apparatus” (Rohm and Haas Company, priority 2010, dated 2013).
Like-named read-outs stand apart in the source and are kept apart here.

## O=C(O)Cc1ccccc1Nc1c(Cl)cccc1Cl [diclofenac sodium]
Low pH of the stomach
  solubility: essentially insoluble
Near neutral conditions of the upper GI
  solubility: soluble
